Tests used:
[1] = system: BLT1-expressing cells [BLT1이 발현된 세포 (CHO-BLT1)]; assay: LTB4-induced chemotactic motility (Transwell), CHO-BLT1; assay type: cell-based
[2] = system: BLT2-expressing cells [BLT2가 발현된 세포 (CHO-BLT2 cells)]; assay: LPA-induced chemotactic motility (Transwell), CHO-BLT2; assay type: cell-based, human
[3] = system: BLT2-expressing cells [BLT2가 발현된 세포 (CHO-BLT2 cells)]; assay: LTB4-induced BLT2-dependent chemotactic motility (Transwell), CHO-BLT2; assay type: cell-based, human; conditions: for inhibition of chemotaxis: LTB4-stimulated CHO-BLT2 cells, result in words; for IC50: read-out: IC50 (50% inhibitory concentration), chemotaxis, CHO-BLT2 cells, LTB4-induced, serum-free; for inhibition at 10 µM: 10 μM pretreatment, compared with LTB4 (300 nM) treatment (DMSO+), read-out: chemotaxis inhibition
[4] = system: BLT2-expressing cells [BLT2가 발현된 세포 (CHO-BLT2 cells)]; assay: Growth inhibition of BLT2-expressing cells (MTT cell viability); assay type: cell-based; conditions: for inhibition at 10 µM: 10 μM pretreatment 1 h, then LTB4 300 nM, 24 h, read-out: growth inhibition effect; for inhibition of BLT2-induced cell proliferation: 10 μM, LTB4 300 nM, result in words
[5] = system: reactive oxygen species (ROS); assay: ROS measurement in BALF, cigarette smoke and LPS induced COPD mice; assay type: in vivo, mouse; conditions: C57BL/6N mice, oral 1 h before smoke, result in words
[6] = system: neutrophil elastase (NE); assay: NE measurement in BALF, cigarette smoke and LPS induced COPD mice; assay type: in vivo, mouse; conditions: C57BL/6N mice, oral 1 h before smoke, result in words
[7] = system: IL-6; assay: IL-6 measurement in BALF, cigarette smoke and LPS induced COPD mice; assay type: in vivo, mouse; conditions: C57BL/6N mice, oral 1 h before smoke, result in words
[8] = system: cigarette smoke and lipopolysaccharide induced chronic obstructive pulmonary disease animal model [담배연기 및 지질다당류로 유발된 만성 폐쇄성 폐질환 동물 모델]; assay: H&E staining of lung tissue, cigarette smoke and LPS induced COPD mice; assay type: in vivo, mouse; conditions: C57BL/6N mice; for improvement of lung inflammation: cigarette smoke + LPS COPD model, overall result in words; for infiltration of inflammatory cells (H&E): cigarette smoke + LPS, 10 or 20 mg/kg oral, lung tissue, compared with COPD group, result in words
[9] = system: TNF-α; assay: TNF-α measurement in BALF, cigarette smoke and LPS induced COPD mice; assay type: in vivo, mouse; conditions: C57BL/6N mice, oral 1 h before smoke, result in words
[10] = system: inflammatory cells (neutrophils) [염증세포(호중구)]; assay: Inflammatory cell infiltration in BALF, cigarette smoke and LPS induced COPD mice; assay type: in vivo, mouse; conditions: C57BL/6N mice, oral 1 h before smoke, result in words
[11] = 10 μM pretreatment, compared with LTB4 (10 nM) treatment (DMSO+), result in words

With `CCCCC(=O)N(Cc1ccc(-c2ccc(OCC(=O)O)cc2)cc1)c1cccc(F)c1` [AC-1074, 2-(4'-((N-(3-fluorophenyl)pentanamido)methyl)biphenyl-4-yloxy)acetic acid] the change in chemotaxis [1, 11] was “변화가 없음”, the change in chemotaxis ([2]; 10 μM pretreatment, compared with LPA (100 nM) treatment (DMSO+), result in words) was “변화가 없음” and the inhibition of chemotaxis [3] was “현저히 저해”.

In the case of `CCCCC(=O)N(Cc1ccc(-c2ccc(O)cc2)cc1)c1cccc(Br)c1` [AC-1632, N-(3-bromophenyl)-N-((4'-hydroxybiphenyl-4-yl)methyl)pentanamide], the inhibition at 10 µM [4] is reported as 78.7% and the “inhibition of BLT2-induced cell proliferation” value [4] is reported as “매우 우수한 효율로 억제”.

`CCCCC(=O)N(Cc1ccc(-c2ccc(O)cc2)cc1)c1cccc(C(F)(F)F)c1` [AC-1635, N-((4'-hydroxybiphenyl-4-yl)methyl)-N-(3-(trifluoromethyl)phenyl)pentanamide] was tested, and the inhibition at 10 µM [4] was 71.6% and the “inhibition of BLT2-induced cell proliferation” value [4] was “매우 우수한 효율로 억제”.

With `COc1ccc(-c2ccc(CN(C(C)=O)c3cccc(F)c3)cc2)cc1` [AC-1646, N-(3-fluorophenyl)-N-((4'-methoxybiphenyl-4-yl)methyl)acetamide] the inhibition at 10 µM [4] was 72.1% and the “inhibition of BLT2-induced cell proliferation” value [4] was “매우 우수한 효율로 억제”.

`CCCCC(=O)N(Cc1ccc(-c2ccc(C(=O)N3CCN(C(C)C)CC3)cc2)cc1)c1ccc(F)cc1` [AC-1650, N-(4-fluorophenyl)-N-((4'-(4-isopropylpiperazine-1-carbonyl)biphenyl-4-yl)methyl)pentanamide] was tested, and the inhibition at 10 µM [4] was 82.2% and the “inhibition of BLT2-induced cell proliferation” value [4] was “매우 우수한 효율로 억제”.

In the case of `CCCCC(=O)N(CC#Cc1ccc(C(=O)N2CCN(C)CC2)cc1)c1ccccc1` [LMT-692, N-(3-(4-(4-methylpiperazine-1-carbonyl)phenyl)prop-2-ynyl)-N-phenylpentanamide], the chemotaxis inhibition [1, 11] is reported as “억제되지 않음”, the IC50 ([3]; Homo sapiens) is reported as 7570 nM and the inhibition at 10 µM ([3]; Homo sapiens) is reported as 66%. The inhibition of chemotaxis [3] was “현저히 저해” and the “inhibition of BLT2-induced cell proliferation” value [4] was “매우 우수한 효율로 억제”.

For `CCCCC(=O)N(CC#Cc1ccc(C(=O)N2CCNCC2)cc1)c1ccccc1` [LMT-694, N-phenyl-N-(3-(4-(piperazine-1-carbonyl)phenyl)prop-2-ynyl)pentanamide], the chemotaxis inhibition [1, 11] was “억제되지 않음” and the inhibition at 10 µM ([3]; Homo sapiens) was 90%.

`CCCCC(=O)N(CC#Cc1ccc(C(=O)N2CCN(C(C)C)CC2)cc1)c1ccccc1` [LMT-696, N-(3-(4-(4-isopropylpiperazine-1-carbonyl)phenyl)prop-2-ynyl)-N-phenylpentanamide] was tested, and the chemotaxis inhibition [1, 11] was “억제되지 않음”, the IC50 ([3]; Homo sapiens) was 2000 nM and the inhibition at 10 µM ([3]; Homo sapiens) was 70.3%. For the same compound, the inhibition of chemotaxis [3] was “현저히 저해” and the “inhibition of BLT2-induced cell proliferation” value [4] was “매우 우수한 효율로 억제”.

`CCCCC(=O)N(CC#Cc1cccc(C(=O)N2CCNCC2)c1)c1ccccc1` [LMT-837, N-phenyl-N-(3-(3-(piperazine-1-carbonyl)phenyl)prop-2-ynyl)pentanamide] was tested, and the inhibition at 10 µM [4] was 65% and the “inhibition of BLT2-induced cell proliferation” value [4] was “매우 우수한 효율로 억제”.

In the case of `CCCCC(=O)N(CC#Cc1ccc(C(=O)N2CCN(C(C)C)CC2)cc1)c1ccc(F)cc1` [LMT-841, N-(4-fluorophenyl)-N-(3-(4-(4-isopropylpiperazine-1-carbonyl)phenyl)prop-2-ynyl)pentanamide], the inhibition at 10 µM [4] is reported as 60% and the “inhibition of BLT2-induced cell proliferation” value [4] is reported as “매우 우수한 효율로 억제”.

In the case of `CCCCC(=O)N(CC#Cc1cccc(C(=O)N2CCN(C(C)C)CC2)c1)c1ccccc1` [LMT-842, N-(3-(3-(4-isopropylpiperazine-1-carbonyl)phenyl)prop-2-ynyl)-N-phenylpentanamide], the inhibition at 10 µM [4] is reported as 70% and the “inhibition of BLT2-induced cell proliferation” value [4] is reported as “매우 우수한 효율로 억제”.

With `CCCCC(=O)N(CC#Cc1ccc(C(=O)N(CC)CC)cc1)c1ccccc1` [LMT-883, N,N-diethyl-4-(3-(N-phenylpentanamido)prop-1-ynyl)benzamide] the inhibition at 10 µM [4] was 99% and the “inhibition of BLT2-induced cell proliferation” value [4] was “매우 우수한 효율로 억제”.

With `CCCCC(=O)N(CC#Cc1ccc(C(=O)N2CCN(C(C)C)CC2)cc1)c1cccc(F)c1` [LMT-886, N-(3-fluorophenyl)-N-(3-(4-(4-isopropylpiperazine-1-carbonyl)phenyl)prop-2-ynyl)pentanamide] the ROS production [5] was “유의적으로 감소”, the NE production [6] was “유의적으로 감소” and the IL-6 production [7] was “현저히 감소”. The “improvement of lung inflammation” value [8] was “폐의 염증을 개선하는 효능”, the “infiltration of inflammatory cells (H&E)” value [8] was “감소” and the TNF-α production [9] was “현저히 감소”. The “infiltration of inflammatory cells (neutrophils)” value [10] was “유의적으로 감소”, the inhibition at 10 µM [4] was 99% and the “inhibition of BLT2-induced cell proliferation” value [4] was “매우 우수한 효율로 억제”.

With `CCCCC(=O)N(CC#Cc1ccc(C(=O)O)cc1)c1ccccc1` [LMT-1013, 4-(3-(N-phenylpentanamido)prop-1-yn-1-yl)benzoic acid] the ROS production [5] was “유의적으로 감소”, the NE production [6] was “유의적으로 감소” and the IC50 ([1]; read-out: IC50 (50% inhibitory concentration), chemotaxis, CHO-BLT1 cells, LTB4-induced, serum-free) was at least 10000 nM. The IL-6 production [7] was “현저히 감소”, the “improvement of lung inflammation” value [8] was “폐의 염증을 개선하는 효능” and the “infiltration of inflammatory cells (H&E)” value [8] was “감소”. For the same compound, the TNF-α production [9] was “현저히 감소”, the “infiltration of inflammatory cells (neutrophils)” value [10] was “유의적으로 감소” and the IC50 ([3]; Homo sapiens) was 62.4 nM. For the same compound, the inhibition of chemotaxis [3] was “현저히 저해” and the “inhibition of BLT2-induced cell proliferation” value [4] was “매우 우수한 효율로 억제”.

In the case of `CCCCC(=O)N(CC#Cc1ccc(C(=O)NCCN(C)C)cc1)c1ccccc1` [LMT-1016, N-(2-(dimethylamino)ethyl)-4-(3-(N-phenylpentanamido)prop-1-yn-1-yl)benzamide], the inhibition at 10 µM [4] is reported as 99% and the “inhibition of BLT2-induced cell proliferation” value [4] is reported as “매우 우수한 효율로 억제”.

`CCCCC(=O)N(CC#Cc1ccc(C(=O)NC(C)C(=O)OC)cc1)c1ccccc1` (centres unmarked) [LMT-1018, methyl 2-(4-(3-(N-phenylpentanamido)prop-1-yn-1-yl)benzamido)propanoate] was tested, and the inhibition at 10 µM [4] was 71.6% and the “inhibition of BLT2-induced cell proliferation” value [4] was “매우 우수한 효율로 억제”.

In the case of `CCCCC(=O)N(CC#Cc1ccc(C(=O)NC(C)C(=O)O)cc1)c1ccccc1` (centres unmarked) [LMT-1019, 2-(4-(3-(N-phenylpentanamido)prop-1-yn-1-yl)benzamido)propanoic acid], the inhibition at 10 µM [4] is reported as 99% and the “inhibition of BLT2-induced cell proliferation” value [4] is reported as “매우 우수한 효율로 억제”.

`CCCCCCCC/C=C\CCCCCCCC(=O)OC[C@@H](O)COP(=O)(O)O` [LPA, lysophosphatidic acid, reference compound] was tested, and the fold induction at 0.1 µM ([2]; Homo sapiens, 3 h, LPA 100 nM (DMSO+) compared with ethanol (DMSO-), read-out: increase in cell chemotaxis) was 3.4.

For `CCCCC/C=C\C[C@@H](O)/C=C/C=C/C=C\[C@@H](O)CCCC(=O)O` [LTB4, Leukotriene B4, reference compound], the fold induction at 0.01 µM ([1]; 3 h, LTB4 10 nM (DMSO+) compared with ethanol (DMSO-), read-out: increase in cell chemotaxis) was 2.2, the “increase in cell chemotaxis” value ([1]; cho-blt1 cells, 3 h, 0.01 µM) was 2.8 fold and the fold induction at 0.3 µM ([3]; Homo sapiens, 3 h, LTB4 300 nM (DMSO+) compared with ethanol (DMSO-), read-out: increase in cell chemotaxis) was 2.4. The “increase in cell chemotaxis” value ([3]; LTB4 300 nM (DMSO+) compared with ethanol (DMSO-), 180 min, 0.3 µM) was 2.9 fold.

Source: patent publication KR20180087157A, “Blt 저해 활성을 갖는 화합물을 유효성분으로 포함하는 만성 폐쇄성 폐질환 예방 또는 치료용 약학적 조성물” (동국대학교 산학협력단, priority 2017, dated 2018)
